Data as given in PubChem BioAssay AID2060484 (Molecular Pharmacology Branch, DTP, NCI, 2025).

System: SUM149PT spheroids with HUVEC/MSC, viability
Assay: Anticancer human tumor SUM149PT cell line growth inhibition [GQUAD];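 also: spheroids exposed to drugs for seven days before readout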;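 as to viability, T/C: percent viability relative to DMSO vehicle control taken as 100%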
Details: for IC50: curve of first compound; for viability, T/C: stronger effect = lower value
Outline: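 Multi-cell-type spheroids of tumor cells with HUVEC and mesenchymal stem cells, treated with drug combinations. Concentrations descend in half-log steps from near clinical Cmax, or from 10 microM where Cmax is unknown; viability read-out.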

[1] = second compound 0.0316 µM, first compound 0.0316 µM
[2] = second compound 0.0316 µM, first compound 0.1 µM
[3] = second compound 0.0316 µM, first compound 0.316 µM
[4] = second compound 0.0316 µM, first compound 1 µM
[5] = second compound 0.0316 µM, first compound 3.16 µM
[6] = second compound 0.0316 µM, first compound 10 µM
[7] = second compound 0.1 µM, first compound 0.0316 µM
[8] = second compound 0.1 µM, first compound 0.1 µM
[9] = second compound 0.1 µM, first compound 0.316 µM
[10] = second compound 0.1 µM, first compound 1 µM
[11] = second compound 0.1 µM, first compound 3.16 µM
[12] = second compound 0.1 µM, first compound 10 µM
[13] = second compound 0.316 µM, first compound 0.0316 µM
[14] = second compound 0.316 µM, first compound 0.1 µM
[15] = second compound 0.316 µM, first compound 0.316 µM
[16] = second compound 0.316 µM, first compound 1 µM
[17] = second compound 0.316 µM, first compound 3.16 µM
[18] = second compound 0.316 µM, first compound 10 µM
[19] = second compound 1 µM, first compound 0.0316 µM
[20] = second compound 1 µM, first compound 0.1 µM
[21] = second compound 1 µM, first compound 0.316 µM
[22] = second compound 1 µM, first compound 1 µM
[23] = second compound 1 µM, first compound 3.16 µM
[24] = second compound 1 µM, first compound 10 µM
[25] = second compound 3.16 µM, first compound 0.0316 µM
[26] = second compound 3.16 µM, first compound 0.1 µM
[27] = second compound 3.16 µM, first compound 0.316 µM
[28] = second compound 3.16 µM, first compound 1 µM
[29] = second compound 3.16 µM, first compound 3.16 µM
[30] = second compound 3.16 µM, first compound 10 µM
[31] = second compound 10 µM, first compound 0.0316 µM
[32] = second compound 10 µM, first compound 0.1 µM
[33] = second compound 10 µM, first compound 0.316 µM
[34] = second compound 10 µM, first compound 1 µM
[35] = second compound 10 µM, first compound 3.16 µM
[36] = second compound 10 µM, first compound 10 µM

SMILES: CC(C)n1c(=O)n(C)c2cnc3cc(F)c(-c4ccc(OCCCN5CCCCC5)nc4)cc3c21 + Cc1[nH]c2ccc(F)cc2c1-c1nc2c3cccnc3c3ncccc3c2[nH]1
- IC50 (second compound 0.0316 µM): > 10000 nM
- IC50 (second compound 0.1 µM): > 10000 nM
- IC50 (second compound 0.316 µM): > 10000 nM
- IC50 (second compound 1 µM): > 10000 nM
- IC50 (second compound 3.16 µM): > 10000 nM
- IC50 (second compound 10 µM): > 10000 nM
- viability, T/C [1]: 86.3%
- viability, T/C [2]: 80.9%
- viability, T/C [3]: 104%
- viability, T/C [4]: 96.4%
- viability, T/C [5]: 98.1%
- viability, T/C [6]: 67.7%
- viability, T/C [7]: 97.8%
- viability, T/C [8]: 90.8%
- viability, T/C [9]: 88%
- viability, T/C [10]: 101%
- viability, T/C [11]: 98.5%
- viability, T/C [12]: 73%
- viability, T/C [13]: 99.3%
- viability, T/C [14]: 91.3%
- viability, T/C [15]: 95%
- viability, T/C [16]: 103%
- viability, T/C [17]: 93.8%
- viability, T/C [18]: 73.2%
- viability, T/C [19]: 94.8%
- viability, T/C [20]: 96.4%
- viability, T/C [21]: 95.7%
- viability, T/C [22]: 97.5%
- viability, T/C [23]: 105%
- viability, T/C [24]: 69.4%
- viability, T/C [25]: 89.9%
- viability, T/C [26]: 91.5%
- viability, T/C [27]: 97.5%
- viability, T/C [28]: 92.5%
- viability, T/C [29]: 99.8%
- viability, T/C [30]: 64.3%
- viability, T/C [31]: 94.5%
- viability, T/C [32]: 77.6%
- viability, T/C [33]: 89%
- viability, T/C [34]: 92.5%
- viability, T/C [35]: 94.8%
- viability, T/C [36]: 62.5%

SMILES: CC1COCCN1c1cc(-c2ccnn2C)c2ccnc(-c3ccn[nH]3)c2n1 (centres undefined) + Cc1[nH]c2ccc(F)cc2c1-c1nc2c3cccnc3c3ncccc3c2[nH]1
- IC50 (second compound 0.0316 µM): 89.1 nM
- IC50 (second compound 0.1 µM): 95.5 nM
- IC50 (second compound 0.316 µM): 107 nM
- IC50 (second compound 1 µM): 120 nM
- IC50 (second compound 3.16 µM): 97.2 nM
- IC50 (second compound 10 µM): 93.9 nM
- viability, T/C [1]: 90.7%
- viability, T/C [2]: 45.6%
- viability, T/C [3]: 25.8%
- viability, T/C [4]: 26.4%
- viability, T/C [5]: 27%
- viability, T/C [6]: 26.3%
- viability, T/C [7]: 82.7%
- viability, T/C [8]: 48.6%
- viability, T/C [9]: 25.1%
- viability, T/C [10]: 21.8%
- viability, T/C [11]: 28.6%
- viability, T/C [12]: 25.7%
- viability, T/C [13]: 95.1%
- viability, T/C [14]: 51.4%
- viability, T/C [15]: 23.3%
- viability, T/C [16]: 23.9%
- viability, T/C [17]: 25.8%
- viability, T/C [18]: 25.3%
- viability, T/C [19]: 92.4%
- viability, T/C [20]: 54.5%
- viability, T/C [21]: 26.4%
- viability, T/C [22]: 26.4%
- viability, T/C [23]: 24.8%
- viability, T/C [24]: 26.6%
- viability, T/C [25]: 98.2%
- viability, T/C [26]: 48.8%
- viability, T/C [27]: 25.4%
- viability, T/C [28]: 26.2%
- viability, T/C [29]: 25.7%
- viability, T/C [30]: 22.5%
- viability, T/C [31]: 92.7%
- viability, T/C [32]: 47.6%
- viability, T/C [33]: 24.2%
- viability, T/C [34]: 27.4%
- viability, T/C [35]: 23%
- viability, T/C [36]: 24.1%
